Our source for the IC50 values is patent US11084829B2, “Ubiquitin-specific-processing protease 7 (USP7) modulators and uses thereof” (RAPT THERAPEUTICS, INC., priority 2018, dated 2021).

The IC50 is the concentration that gives 50% inhibition.

Chain of USP7 (Q93009 whole entry): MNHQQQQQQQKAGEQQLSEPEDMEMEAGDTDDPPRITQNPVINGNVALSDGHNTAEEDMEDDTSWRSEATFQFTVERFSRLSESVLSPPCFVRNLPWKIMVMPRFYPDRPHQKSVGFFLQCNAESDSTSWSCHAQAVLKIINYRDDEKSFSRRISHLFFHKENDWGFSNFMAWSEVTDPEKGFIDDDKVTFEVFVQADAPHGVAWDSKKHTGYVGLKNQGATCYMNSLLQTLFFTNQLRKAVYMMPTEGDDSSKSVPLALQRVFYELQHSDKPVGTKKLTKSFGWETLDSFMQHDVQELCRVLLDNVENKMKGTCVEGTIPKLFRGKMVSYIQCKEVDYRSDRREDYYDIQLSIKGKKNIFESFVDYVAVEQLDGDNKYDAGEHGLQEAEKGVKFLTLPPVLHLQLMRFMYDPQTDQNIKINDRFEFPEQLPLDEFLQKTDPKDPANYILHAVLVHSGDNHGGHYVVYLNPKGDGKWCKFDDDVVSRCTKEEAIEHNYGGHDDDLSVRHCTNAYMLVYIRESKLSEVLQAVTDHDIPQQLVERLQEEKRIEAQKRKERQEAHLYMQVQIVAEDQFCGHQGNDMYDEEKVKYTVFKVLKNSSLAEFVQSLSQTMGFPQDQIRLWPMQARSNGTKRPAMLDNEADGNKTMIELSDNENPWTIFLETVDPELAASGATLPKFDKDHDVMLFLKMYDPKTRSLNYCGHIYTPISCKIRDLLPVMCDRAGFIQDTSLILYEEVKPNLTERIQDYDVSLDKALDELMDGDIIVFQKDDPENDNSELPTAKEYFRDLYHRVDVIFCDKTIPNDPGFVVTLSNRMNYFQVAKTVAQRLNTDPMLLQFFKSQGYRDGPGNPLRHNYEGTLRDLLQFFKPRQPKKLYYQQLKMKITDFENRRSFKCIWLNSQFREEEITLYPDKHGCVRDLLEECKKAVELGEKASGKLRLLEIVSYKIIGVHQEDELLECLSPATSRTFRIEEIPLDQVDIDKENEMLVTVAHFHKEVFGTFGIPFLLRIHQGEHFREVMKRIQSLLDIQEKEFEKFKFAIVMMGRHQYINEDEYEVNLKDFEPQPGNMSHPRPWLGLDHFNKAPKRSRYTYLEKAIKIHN

This test concerns the target USP7 (Homo sapiens, UniProt Q93009). Put plainly: USP7 inhibitory potency (IC50). The test is classed as biochemical. Here is the method: Activity for compounds described herein is provided in Table 2, wherein potency levels are provided as follows: (Potency: USP7 IC50: A<0.01 μM; B=0.01-0.1 μM; C=>0.1 μM.
Turning to `Cc1cc(Cl)cc(-c2ccnc3cc(CN4C(=O)C5C(C4=O)C5(C)C)sc23)c1CN1CCN(C)C[C@@H]1C` (stereo partly drawn) [Example 23, 3-((7-(5-chloro-2-(((S)-2,4-dimethylpiperazin-1-yl)methyl)-3-methylphenyl)thieno[3,2-b]pyridin-2-yl)methyl)-6,6-dimethyl-3-azabicyclo[3.1.0]hexane-2,4-dione], the IC50 is less than 10 nM.

Molecule `Cc1cc(Cl)cc(-c2ccnc3cc(CN4C(=O)CCC4=O)sc23)c1CN1[C@@H](C)CNC[C@@H]1C` [Example 14, 1-((7-(5-chloro-2-(((2S,6S)-2,6-dimethylpiperazin-1-yl)methyl)-3-methylphenyl)thieno[3,2-b]pyridin-2-yl)methyl)pyrrolidine-2,5-dione] registered an IC50 of less than 10 nM.

With `Cc1cc(Cl)cc(-c2ccnc3cc(CN4C(=O)C5CC5C4=O)sc23)c1C[C@@H]1CNCCO1` (stereo partly drawn) [Example 123, 3-((7-(5-chloro-3-methyl-2-(((R)-morpholin-2-yl)methyl)phenyl)thieno[3,2-b]pyridin-2-yl)methyl)-3-azabicyclo[3.1.0]hexane-2,4-dione], the IC50 is less than 10 nM.

The molecule `Cc1cc(Cl)cc(-c2ncnc3cc(CN4CCCC4=O)sc23)c1C[C@@H]1CNCC(C)(C)O1` [Example 235, (R)-1-((4-(5-chloro-2-((6,6-dimethylmorpholin-2-yl)methyl)-3-methylphenyl)thieno[3,2-d]pyrimidin-6-yl)methyl)pyrrolidin-2-one] registered an IC50 of 10 to 100 nM.

In turn, `Cc1cc(Cl)cc(-c2ccnc3cc(CN4C(=O)C5CC5C4=O)sc23)c1CC1CNCCO1` (stereo not shown) [Example 102, 3-((7-(5-chloro-3-methyl-2-(morpholin-2-ylmethyl)phenyl)thieno[3,2-b]pyridin-2-yl)methyl)-3-azabicyclo[3.1.0]hexane-2,4-dione] returned an IC50 of less than 10 nM.

`Cc1cc(Cl)cc(-c2ncnc3cc(CN4C(=O)c5ccccc5C4=O)sc23)c1CC1CNCCO1` (stereo not shown) [Example 179, 2-((4-(5-chloro-3-methyl-2-(morpholin-2-ylmethyl)phenyl)thieno[3,2-d]pyrimidin-6-yl)methyl)isoindoline-1,3-dione] showed a concentration for half-maximal inhibition (IC50) of less than 10 nM.

In turn, `Cc1cc(Cl)cc(-c2ncnc3cc(CN4C(=O)CCC4=O)sc23)c1CN1[C@@H](C)CNC[C@@H]1C` [Example 77, 1-((4-(5-chloro-2-(((2S,6S)-2,6-dimethylpiperazin-1-yl)methyl)-3-methylphenyl)thieno[3,2-d]pyrimidin-6-yl)methyl)pyrrolidine-2,5-dione] gave an IC50 of less than 10 nM.

Turning to `Cc1cc(Cl)cc(-c2ccnc3cc(CN4C(=O)CCCC4=O)sc23)c1CN1C[C@@H](C)NC[C@@H]1C` [Example 45, 1-((7-(5-chloro-2-(((2S,5R)-2,5-dimethylpiperazin-1-yl)methyl)-3-methylphenyl)thieno[3,2-b]pyridin-2-yl)methyl)piperidine-2,6-dione], the IC50 was less than 10 nM.

`Cc1cc(Cl)cc(-c2ncnc3cc(CN4C(=O)CCC4C)sc23)c1C[C@@H]1CNCC(C)(C)O1` (stereo partly drawn) [Example 241, 1-((4-(5-chloro-2-(((R)-6,6-dimethylmorpholin-2-yl)methyl)-3-methylphenyl)thieno[3,2-d]pyrimidin-6-yl)methyl)-5-methylpyrrolidin-2-one] came in with an IC50 of 10 to 100 nM.

The molecule `CCC1NC(=O)N(Cc2cc3ncnc(-c4cc(Cl)cc(C)c4C[C@@H]4CNCCO4)c3s2)C1=O` (stereo partly drawn) [Example 245, 3-((4-(5-chloro-3-methyl-2-(((R)-morpholin-2-yl)methyl)phenyl)thieno[3,2-d]pyrimidin-6-yl)methyl)-5-ethylimidazolidine-2,4-dione] had a half-maximal inhibitory concentration (IC50) of less than 10 nM.

As to `Cc1cc(Cl)cc(-c2ncnc3cc(CN4C(=O)C5C(C4=O)C5(C)C)sc23)c1CC1(C)CNCCO1` (stereo not shown) [Example 157, 3-((4-(5-chloro-3-methyl-2-((2-methylmorpholin-2-yl)methyl)phenyl)thieno[3,2-d]pyrimidin-6-yl)methyl)-6,6-dimethyl-3-azabicyclo[3.1.0]hexane-2,4-dione], the IC50 was in the range of 10 to 100 nM.

`Cc1cc(Cl)cc(-c2ncnc3cc(CN4C(=O)CN(CC(=O)O)C4=O)sc23)c1C[C@@H]1CNCCO1` [Example 261, (R)-2-(3-((4-(5-chloro-3-methyl-2-(morpholin-2-ylmethyl)phenyl)thieno[3,2-d]pyrimidin-6-yl)methyl)-2,4-dioxoimidazolidin-1-yl)acetic acid] returned an IC50 of 10 to 100 nM.

In the case of `Cc1cc(Cl)cc(-c2ncnc3cc(CN4CCCCC4=O)sc23)c1CC1CNCCO1` (stereo not shown) [Example 175, 1-((4-(5-chloro-3-methyl-2-(morpholin-2-ylmethyl)phenyl)thieno[3,2-d]pyrimidin-6-yl)methyl)piperidin-2-one], the IC50 was more than 100 nM.

On to `Cc1cc(Cl)cc(-c2ncnc3cc(CN4C(=O)CCC4=O)sc23)c1CN1C[C@@H](C)NC[C@@H]1C` [Example 68, 1-((4-(5-chloro-2-(((2S,5R)-2,5-dimethylpiperazin-1-yl)methyl)-3-methylphenyl)thieno[3,2-d]pyrimidin-6-yl)methyl)pyrrolidine-2,5-dione], for which the half-maximal inhibitory concentration (IC50) was 10 to 100 nM.

As to `CN1CCC(=O)N(Cc2cc3nccc(-c4cc(Cl)cc(Cl)c4CC4CNCCO4)c3s2)C1=O` (stereo not shown) [Example 130, 3-((7-(3,5-dichloro-2-(morpholin-2-ylmethyl)phenyl)thieno[3,2-b]pyridin-2-yl)methyl)-1-methyldihydropyrimidine-2,4(1H,3H)-dione], the IC50 was less than 10 nM.

With `Cc1cc(Cl)cc(-c2ccnc3cc(CN4C(=O)CCC4=O)sc23)c1CC1CNCCO1` (stereo not shown) [Example 96, 1-((7-(5-chloro-3-methyl-2-(morpholin-2-ylmethyl)phenyl)thieno[3,2-b]pyridin-2-yl)methyl)pyrrolidine-2,5-dione], the IC50 was 10 to 100 nM.

Molecule `Cc1cc(Cl)cc(-c2ccnc3c(F)c(CN4C(=O)CC[C@@H]4CF)sc23)c1C[C@@H]1CNCCO1` [Example 149, (R)-1-((7-(5-chloro-3-methyl-2-(((R)-morpholin-2-yl)methyl)phenyl)-3-fluorothieno[3,2-b]pyridin-2-yl)methyl)-5-(fluoromethyl)pyrrolidin-2-one] registered an IC50 of 10 to 100 nM.

For the molecule `Cc1cc(Cl)cc(-c2ncnc3cc(CN4C(=O)C5C(C4=O)C5(C)C)sc23)c1CN1C[C@@H](C)NC[C@@H]1C` (stereo partly drawn) [Example 67, 3-((4-(5-chloro-2-(((2S,5R)-2,5-dimethylpiperazin-1-yl)methyl)-3-methylphenyl)thieno[3,2-d]pyrimidin-6-yl)methyl)-6,6-dimethyl-3-azabicyclo[3.1.0]hexane-2,4-dione], the 50% inhibitory concentration (IC50) is less than 10 nM.

Turning to `Cc1cc(Cl)cc(-c2ncnc3cc(CN4C(=O)CCN(CC(F)F)C4=O)sc23)c1CN1[C@@H](C)CNC[C@@H]1C` [Example 259, 3-((4-(5-chloro-2-(((2S,6S)-2,6-dimethylpiperazin-1-yl)methyl)-3-methylphenyl)thieno[3,2-d]pyrimidin-6-yl)methyl)-1-(2,2-difluoroethyl)dihydropyrimidine-2,4(1H,3H)-dione], the IC50 was less than 10 nM.

Consider `Cc1cc(Cl)cc(-c2ccnc3cc(CN4C(=O)CCC4=O)sc23)c1CN1CCN(C)C[C@@H]1C` [Example 3, (S)-1-((7-(5-chloro-2-((2,4-dimethylpiperazin-1 yl)methyl)-3-methylphenyl)thieno[3,2-b]pyridin-2-yl)methyl)pyrrolidine-2,5-dione], for which the IC50 was less than 10 nM.

As for `Cc1cc(Cl)cc(-c2ccnc3cc(Cn4c(=O)ccn(C)c4=O)sc23)c1CN1C[C@@H](C)NC[C@@H]1C` [Example 46, 3-((7-(5-chloro-2-(((2S,5R)-2,5-dimethylpiperazin-1-yl)methyl)-3-methylphenyl)thieno[3,2-b]pyridin-2-yl)methyl)-1-methylpyrimidine-2,4(1H,3H)-dione], the IC50 was less than 10 nM.

Molecule `Cc1cc(Cl)cc(-c2ncnc3cc(CN4C(=O)CCN(C)C4=O)sc23)c1CC1CNCC2(COC2)O1` (stereo not shown) [Example 238, 3-((4-(2-((2,5-dioxa-8-azaspiro[3.5]nonan-6-yl)methyl)-5-chloro-3-methylphenyl)thieno[3,2-d]pyrimidin-6-yl)methyl)-1-methyldihydropyrimidine-2,4(1H,3H)-dione] returned a half-maximal inhibitory concentration (IC50) of less than 10 nM.

In the case of `Cc1cc(Cl)cc(-c2ccnc3cc(CN4C(=O)C5C(C4=O)C5(C)C)sc23)c1CN1CCNCC1` (stereo not shown) [Example 6, 3-((7-(5-chloro-3-methyl-2-(piperazin-1-ylmethyl)phenyl)thieno[3,2-b]pyridin-2-yl)methyl)-6,6-dimethyl-3-azabicyclo[3.1.0]hexane-2,4-dione], the IC50 was 10 to 100 nM.

Regarding `Cc1cc(Cl)cc(-c2ncnc3cc(CN4C(=O)[C@@H]5CCCN5C4=O)sc23)c1CN1[C@@H](C)CNC[C@@H]1C` [Example 88, (S)-2-((4-(5-chloro-2-(((2S,6S)-2,6-dimethylpiperazin-1-yl)methyl)-3-methylphenyl)thieno[3,2-d]pyrimidin-6-yl)methyl)tetrahydro-1H-pyrrolo[1,2-c]imidazole-1,3(2H)-dione], the IC50 was less than 10 nM.

For the molecule `O=C1C2CC2C(=O)N1Cc1cc2nccc(-c3cc(Cl)cc(Cl)c3CC3CNCC4(CCC4)O3)c2s1` (stereo not shown) [Example 150, 3-((7-(2-((5-oxa-8-azaspiro[3.5]nonan-6-yl)methyl)-3,5-dichlorophenyl)thieno[3,2-b]pyridin-2-yl)methyl)-3-azabicyclo[3.1.0]hexane-2,4-dione], the IC50 is less than 10 nM.

The molecule `Cc1cc(Cl)cc(-c2ccnc3cc(CN4C(=O)C5CC5C4=O)sc23)c1CC1CNCCS1` (stereo not shown) [Example 113, 3-((7-(5-chloro-3-methyl-2-(thiomorpholin-2-ylmethyl)phenyl)thieno[3,2-b]pyridin-2-yl)methyl)-3-azabicyclo[3.1.0]hexane-2,4-dione] showed an IC50 of less than 10 nM.

The molecule `C[C@H]1CNCCN1Cc1ccc(F)cc1-c1ncnc2cc(CN3C(=O)C4CC4C3=O)sc12` (stereo partly drawn) [Example 63, 3-((4-(5-fluoro-2-(((S)-2-methylpiperazin-1-yl)methyl)phenyl)thieno[3,2-d]pyrimidin-6-yl)methyl)-3-azabicyclo[3.1.0]hexane-2,4-dione] had an IC50 of more than 100 nM.

The molecule `CN1CC(=O)N(Cc2cc3nccc(-c4cc(Cl)cc(Cl)c4CC4CNCCO4)c3s2)C1=O` (stereo not shown) [Example 141, 3-((7-(3,5-dichloro-2-(morpholin-2-ylmethyl)phenyl)thieno[3,2-b]pyridin-2-yl)methyl)-1-methylimidazolidine-2,4-dione] registered an IC50 of less than 10 nM.
